Source: article PMC10175918 (Communications Biology, 2023)
Where two headings read alike, the source gives them in different places. Values belong to the molecule of their own block, whether it stands above or below them.

Columns and labels:
Assay in all cases: cell-based
Design in all cases: species or system HEK293A; AP-TGFα shedding assay, transfected GPCR plus chimeric Gα mixture, AP release as % of TPA response
Settings in all cases: HEK293-A
[1] = molecular target: T1, G protein-coupled receptor 68 long (Homo sapiens, UniProt Q15743)
T1 construct: gene GPR68; long isoform

[2] = molecular target: T2, prostaglandin E receptor 3 iso6 (Homo sapiens, UniProt P43115)
T2 construct: gene PTGER3; iso6
T2 sequence (P43115 1-390): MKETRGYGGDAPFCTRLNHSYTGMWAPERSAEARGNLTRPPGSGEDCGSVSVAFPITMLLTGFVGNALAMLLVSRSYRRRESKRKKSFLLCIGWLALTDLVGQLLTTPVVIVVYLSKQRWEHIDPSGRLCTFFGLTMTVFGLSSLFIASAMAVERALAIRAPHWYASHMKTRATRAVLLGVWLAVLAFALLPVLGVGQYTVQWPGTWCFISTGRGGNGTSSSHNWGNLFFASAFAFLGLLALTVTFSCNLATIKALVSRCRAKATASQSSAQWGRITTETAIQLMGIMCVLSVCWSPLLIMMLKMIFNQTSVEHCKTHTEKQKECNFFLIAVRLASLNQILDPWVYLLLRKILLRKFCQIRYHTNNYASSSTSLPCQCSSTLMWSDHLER

[3] = molecular target: T3, chemerin chemokine-like receptor 1 (Homo sapiens, UniProt Q99788)
T3 construct: gene CMKLR1
T3 sequence (Q99788 1-373): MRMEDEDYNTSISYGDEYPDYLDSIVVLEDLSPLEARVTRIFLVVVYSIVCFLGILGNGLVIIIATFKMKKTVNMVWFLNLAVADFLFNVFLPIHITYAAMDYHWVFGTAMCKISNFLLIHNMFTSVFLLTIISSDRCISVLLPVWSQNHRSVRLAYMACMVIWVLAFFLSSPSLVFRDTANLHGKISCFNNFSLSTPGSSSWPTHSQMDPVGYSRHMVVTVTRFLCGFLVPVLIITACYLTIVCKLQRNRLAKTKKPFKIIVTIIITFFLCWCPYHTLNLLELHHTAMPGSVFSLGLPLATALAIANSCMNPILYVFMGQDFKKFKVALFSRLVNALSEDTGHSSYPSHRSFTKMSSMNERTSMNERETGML

[4] = molecular target: T4, purinergic receptor P2Y, G-protein coupled, 13 short (Homo sapiens, UniProt Q9BPV8)
T4 construct: gene P2RY13; short
T4 sequence (Q9BPV8 1-354): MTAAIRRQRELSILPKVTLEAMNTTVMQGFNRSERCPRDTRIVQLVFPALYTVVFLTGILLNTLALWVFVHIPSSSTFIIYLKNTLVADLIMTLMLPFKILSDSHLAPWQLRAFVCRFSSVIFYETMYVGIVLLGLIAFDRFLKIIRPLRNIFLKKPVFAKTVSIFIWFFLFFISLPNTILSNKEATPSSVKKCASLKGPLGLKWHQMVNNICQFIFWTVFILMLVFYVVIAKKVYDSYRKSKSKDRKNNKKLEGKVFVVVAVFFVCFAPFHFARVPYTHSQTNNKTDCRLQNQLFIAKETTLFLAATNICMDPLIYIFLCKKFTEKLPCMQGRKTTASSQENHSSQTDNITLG

[5] = molecular target: T5, hypocretin (orexin) receptor 2 (Homo sapiens, UniProt O43614)
T5 construct: gene HCRTR2
T5 sequence (O43614 1-444): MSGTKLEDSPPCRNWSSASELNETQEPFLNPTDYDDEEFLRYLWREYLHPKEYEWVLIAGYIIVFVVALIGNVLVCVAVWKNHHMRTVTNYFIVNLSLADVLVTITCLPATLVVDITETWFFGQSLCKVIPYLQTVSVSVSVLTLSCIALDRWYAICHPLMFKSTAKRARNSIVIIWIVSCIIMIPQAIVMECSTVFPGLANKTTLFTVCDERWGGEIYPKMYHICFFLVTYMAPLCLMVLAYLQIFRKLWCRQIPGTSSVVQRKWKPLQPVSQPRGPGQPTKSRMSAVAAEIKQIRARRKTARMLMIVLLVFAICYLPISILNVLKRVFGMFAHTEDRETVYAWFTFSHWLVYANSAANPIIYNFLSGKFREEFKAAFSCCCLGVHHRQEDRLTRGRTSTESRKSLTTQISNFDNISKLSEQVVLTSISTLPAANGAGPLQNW

[6] = molecular target: T6, C-C motif chemokine receptor 7 (Homo sapiens, UniProt P32248)
T6 construct: gene CCR7
T6 sequence (P32248 1-378): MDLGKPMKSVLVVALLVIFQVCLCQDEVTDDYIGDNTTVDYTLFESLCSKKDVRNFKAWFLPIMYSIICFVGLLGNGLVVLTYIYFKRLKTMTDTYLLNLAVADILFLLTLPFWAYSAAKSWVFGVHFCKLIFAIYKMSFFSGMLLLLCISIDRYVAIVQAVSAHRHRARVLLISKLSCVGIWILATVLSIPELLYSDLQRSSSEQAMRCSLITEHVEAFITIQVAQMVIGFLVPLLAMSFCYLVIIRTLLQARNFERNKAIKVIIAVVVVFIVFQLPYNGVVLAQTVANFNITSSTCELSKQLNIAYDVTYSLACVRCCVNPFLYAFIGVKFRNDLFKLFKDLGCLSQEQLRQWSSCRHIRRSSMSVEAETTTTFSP

[7] = molecular target: T7, G protein-coupled receptor 183 (Epstein-Barr Virus Induced Gene 2) (Homo sapiens, UniProt P32249)
T7 construct: gene GPR183

adenosine A2a receptor = molecular target: T8, adenosine A2a receptor (Homo sapiens, UniProt P29274)
T8 construct: gene ADORA2A

[8] = read-out: % GPCR activation of 10μM GS441524 compared to TPA
[9] = read-out: % GPCR activation of 100μM Favipiravir compared to TPA
[10] = read-out: % GPCR activation of 10µM Molnupiravir compared to TPA
[11] = read-out: % GPCR activation of 10µM Remdesivir compared to TPA
[12] = read-out: % GPCR activation of 10μM Sofosbuvir compared to TPA

T1 sequence (Q15743 whole entry, canonical isoform): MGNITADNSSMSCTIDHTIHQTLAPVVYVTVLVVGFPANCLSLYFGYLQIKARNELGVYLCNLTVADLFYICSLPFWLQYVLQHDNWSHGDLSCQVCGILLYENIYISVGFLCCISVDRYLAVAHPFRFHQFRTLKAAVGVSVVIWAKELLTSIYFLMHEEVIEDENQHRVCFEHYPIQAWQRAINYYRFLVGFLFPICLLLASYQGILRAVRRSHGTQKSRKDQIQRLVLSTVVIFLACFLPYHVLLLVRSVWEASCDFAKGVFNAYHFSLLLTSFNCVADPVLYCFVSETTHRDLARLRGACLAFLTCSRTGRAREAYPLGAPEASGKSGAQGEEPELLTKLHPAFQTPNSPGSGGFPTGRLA
T7 sequence (P32249 whole entry): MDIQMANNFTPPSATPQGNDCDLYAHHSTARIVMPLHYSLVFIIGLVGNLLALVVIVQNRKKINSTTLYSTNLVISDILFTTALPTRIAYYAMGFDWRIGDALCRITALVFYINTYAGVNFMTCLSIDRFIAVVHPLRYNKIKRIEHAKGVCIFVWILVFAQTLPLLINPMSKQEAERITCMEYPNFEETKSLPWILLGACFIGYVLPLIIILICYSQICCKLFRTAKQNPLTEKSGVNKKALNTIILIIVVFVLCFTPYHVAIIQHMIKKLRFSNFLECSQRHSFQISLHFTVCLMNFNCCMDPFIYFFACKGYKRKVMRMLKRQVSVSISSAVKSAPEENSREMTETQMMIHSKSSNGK
T8 sequence (P29274 whole entry): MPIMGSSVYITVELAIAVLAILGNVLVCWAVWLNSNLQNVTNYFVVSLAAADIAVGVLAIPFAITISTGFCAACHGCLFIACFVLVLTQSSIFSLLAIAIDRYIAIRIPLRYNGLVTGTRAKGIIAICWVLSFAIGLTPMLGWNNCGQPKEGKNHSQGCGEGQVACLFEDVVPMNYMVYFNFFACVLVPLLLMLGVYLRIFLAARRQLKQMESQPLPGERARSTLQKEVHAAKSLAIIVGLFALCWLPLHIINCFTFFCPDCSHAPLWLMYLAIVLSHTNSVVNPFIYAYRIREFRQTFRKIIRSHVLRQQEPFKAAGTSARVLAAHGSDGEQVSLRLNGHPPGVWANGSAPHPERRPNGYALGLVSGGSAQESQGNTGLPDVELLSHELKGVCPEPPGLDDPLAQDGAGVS

SMILES: NC(=O)c1nc(F)cnc1O [favipiravir, 6-fluoro-3-hydroxy-2-pyrazinecarboxamide]
activity at 100 µM [1, 9]: 5.02% | activity at 100 µM [2, 9]: 0.28% | activity at 100 µM [3, 9]: 2.98% | activity at 100 µM [4, 9]: 1.7% | activity at 100 µM [5, 9]: 0.725% | activity at 100 µM [6, 9]: -0.335% | activity at 100 µM [7, 9]: -1.16% | activity at 100 µM (adenosine A2a receptor; [9]): 2.34%

SMILES: CCC(CC)COC(=O)[C@H](C)N[P@](=O)(OC[C@H]1O[C@@](C#N)(c2ccc3c(N)ncnn23)[C@H](O)[C@@H]1O)Oc1ccccc1 [remdesivir]
activity at 10 µM [1, 11]: -2.93% | activity at 10 µM [2, 11]: 1.47% | activity at 10 µM [3, 11]: -1.38% | activity at 10 µM [4, 11]: 2.55% | activity at 10 µM [5, 11]: 0.000265% | activity at 10 µM [7, 11]: 0.482% | activity at 10 µM (adenosine A2a receptor; [11]): 3.96%

SMILES: CC(C)OC(=O)[C@H](C)N[P@](=O)(OC[C@H]1O[C@@H](n2ccc(=O)[nH]c2=O)[C@](C)(F)[C@@H]1O)Oc1ccccc1 [sofosbuvir]
activity at 10 µM [1, 12]: -162% | activity at 10 µM [2, 12]: -2.67% | activity at 10 µM [3, 12]: -0.939% | activity at 10 µM [4, 12]: -2.68% | activity at 10 µM [5, 12]: -1.97% | activity at 10 µM [6, 12]: -0.917% | activity at 10 µM [7, 12]: -0.758% | activity at 10 µM (adenosine A2a receptor; [12]): -2.15%

Second part, led by results:

activity at 10 µM [1, 8]: 3.27% | activity at 10 µM [3, 8]: -4.93% | activity at 10 µM [4, 8]: 0.947% | activity at 10 µM [5, 8]: 2.17% | activity at 10 µM [6, 8]: -0.998% | activity at 10 µM (adenosine A2a receptor; [8]): 1.63%
SMILES: N#C[C@@]1(c2ccc3c(N)ncnn23)O[C@H](CO)[C@@H](O)[C@H]1O [GS441524]
activity at 10 µM [2, 8]: -0.459% | activity at 10 µM [7, 8]: -1.47%

activity at 10 µM [1, 10]: -160% | activity at 10 µM [2, 10]: -0.792% | activity at 10 µM [3, 10]: -0.313% | activity at 10 µM [4, 10]: -3.48% | activity at 10 µM [5, 10]: 0.477% | activity at 10 µM [6, 10]: 0.546% | activity at 10 µM [7, 10]: -0.842% | activity at 10 µM (adenosine A2a receptor; [10]): -1.95%
SMILES: CC(C)C(=O)OC[C@H]1O[C@@H](n2ccc(NO)nc2=O)[C@H](O)[C@@H]1O [molnupiravir]
